Test results published in ChEMBL document CHEMBL1201862, “PubChem BioAssay data set” (2004).
The source made the active and inactive calls.

How the values were obtained:
[1] = target: G-protein coupled receptor 35 (Homo sapiens, UniProt Q9HC97); assay: GPR35 antagonists blocking zaprinast-driven arrestin recruitment, primary screen, imaging, U2OS, beta-arrestin-GFP, zaprinast agonist (AID 2058); assay type: functional;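 also: antagonist potency meaning inhibition of agonist-induced arrestin redistribution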
[2] = target: T1, Rac GTPase-activating protein 1 (Homo sapiens, UniProt Q9H0H5); assay: MgcRacGAP GTPase-activating activity inhibitors, confirmation, biochemical, ADP Hunter fluorescence, primary and confirmatory (AID 624330); assay type: functional
T1 sequence (Q9H0H5 whole entry): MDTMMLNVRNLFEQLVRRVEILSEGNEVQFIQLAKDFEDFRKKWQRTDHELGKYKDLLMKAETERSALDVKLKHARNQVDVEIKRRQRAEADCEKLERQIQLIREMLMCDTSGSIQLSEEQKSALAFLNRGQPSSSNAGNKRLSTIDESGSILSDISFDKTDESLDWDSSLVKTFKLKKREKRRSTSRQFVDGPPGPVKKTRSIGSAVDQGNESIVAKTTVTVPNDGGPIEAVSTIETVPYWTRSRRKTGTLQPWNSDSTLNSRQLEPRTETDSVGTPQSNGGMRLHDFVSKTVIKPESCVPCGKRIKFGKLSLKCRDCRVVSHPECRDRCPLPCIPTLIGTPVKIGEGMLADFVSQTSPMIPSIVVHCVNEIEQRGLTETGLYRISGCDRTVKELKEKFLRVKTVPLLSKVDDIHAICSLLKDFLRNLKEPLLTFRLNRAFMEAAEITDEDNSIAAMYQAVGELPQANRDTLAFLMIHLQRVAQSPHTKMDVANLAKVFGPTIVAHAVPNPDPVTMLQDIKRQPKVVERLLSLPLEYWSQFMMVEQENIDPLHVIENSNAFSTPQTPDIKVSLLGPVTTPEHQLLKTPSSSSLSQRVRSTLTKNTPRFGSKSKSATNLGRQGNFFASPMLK

[3] = target: T2, RNA-binding protein pos-1 (Caenorhabditis elegans, UniProt G5EF15); assay: inhibitors of POS-1/mex-3 RNA binding, dose response, biochemical, fluorescence polarization (AID 1964);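 also: purified POS-1 fused to maltose binding protein made in E. coli; potency of compounds blocking POS-1 binding to fluorescent RNA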
T2 sequence (G5EF15 whole entry): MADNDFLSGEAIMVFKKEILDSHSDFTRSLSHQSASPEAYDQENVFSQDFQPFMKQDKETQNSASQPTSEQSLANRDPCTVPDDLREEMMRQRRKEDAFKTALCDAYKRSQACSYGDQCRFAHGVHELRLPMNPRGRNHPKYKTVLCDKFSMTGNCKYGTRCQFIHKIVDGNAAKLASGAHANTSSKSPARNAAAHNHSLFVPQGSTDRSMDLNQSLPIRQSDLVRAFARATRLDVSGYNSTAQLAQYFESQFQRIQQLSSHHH

BJ [4] = assay: cytotoxicity toward BJ-TERT fibroblasts, dose response, cell-based, RAS-independent, luminescence (AID 1933); assay type: functional; settings: Homo sapiens
[5] = target: T3, Zinc finger protein mex-5 (Caenorhabditis elegans, UniProt Q9XUB2); assay: MEX-5/TCR-2 RNA interaction inhibitors, dose response, biochemical, C. elegans, fluorescence polarization (AID 1960)
T3 sequence (Q9XUB2 whole entry): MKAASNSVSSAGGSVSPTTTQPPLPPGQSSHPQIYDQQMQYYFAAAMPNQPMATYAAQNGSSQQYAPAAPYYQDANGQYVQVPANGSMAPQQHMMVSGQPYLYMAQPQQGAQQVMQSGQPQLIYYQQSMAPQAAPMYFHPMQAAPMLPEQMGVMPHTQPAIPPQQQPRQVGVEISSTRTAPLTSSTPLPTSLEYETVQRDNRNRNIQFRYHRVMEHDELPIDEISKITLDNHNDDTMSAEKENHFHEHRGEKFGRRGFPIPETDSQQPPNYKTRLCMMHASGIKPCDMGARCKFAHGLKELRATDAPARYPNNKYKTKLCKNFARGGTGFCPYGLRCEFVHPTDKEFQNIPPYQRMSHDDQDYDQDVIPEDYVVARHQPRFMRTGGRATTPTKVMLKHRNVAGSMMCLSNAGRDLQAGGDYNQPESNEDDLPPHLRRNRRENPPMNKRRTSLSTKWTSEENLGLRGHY

BJ [6] = assay: cells; assay type: functional, cell-based; settings: Homo sapiens
Large T antigen = Large T antigen (Simian virus 40, UniProt P03070); assay type: functional, Betapolyomavirus macacae;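 also: Confirmatory-stage PubChem screen for compounds that inhibit SV40 T antigen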
Estrogen receptor beta [7] = target: T4, Estrogen receptor beta (Homo sapiens, UniProt Q92731);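 also: recombinant ER-beta bound to coactivator SRC1 peptide in presence of estradiol agonist; inhibitors block coactivator peptide binding and lower the FRET signal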
Estrogen receptor beta [8] = target: T4, Estrogen receptor beta; assay: ERβ–SRC-3 coactivator interaction inhibitors, confirmation, orthogonal assay, biochemical, ELISA, streptavidin-HRP readout (AID 1060)
BJ [9] = assay: cytotoxicity toward BJ-TERT-LT-ST fibroblasts, dose response, cell-based, RAS-independent, luminescence (AID 1935); assay type: functional; settings: Homo sapiens;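 also: BJ fibroblasts immortalized with TERT plus LT and ST oncogenes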
[10] = cytotoxicity toward DRD oncogenic fibroblasts, dose response, cell-based, non-viral oncogenic, luminescence (AID 1934); assay type: functional; settings: Homo sapiens
[11] = target: Cyclin-dependent kinase 5/CDK5 activator 1 (Homo sapiens, UniProt Q00535); assay: CDK5/p35 kinase inhibitors, dose response, biochemical, cherry-picked samples, set 2 (AID 504545)
[12] = target: FAD-linked sulfhydryl oxidase ALR (Homo sapiens, UniProt P55789); assay: inhibitors of human ALR sulfhydryl oxidase, dose response, biochemical, H2O2 detection, luminescence, cherry-pick (AID 493248)
[13] = target: Dual specificity tyrosine-phosphorylation-regulated kinase 1A (Rattus norvegicus, UniProt Q63470); assay type: biochemical, Homo sapiens
[14] = Shn3 3'UTR reporter inhibitors, dose response, cell-based, Clone20 osteoblasts, firefly luciferase, cherry-picked (AID 624132); assay type: functional;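 also: firefly luciferase luminescence from reporter carrying the Shn3 3'UTR in osteoblasts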
[15] = HepG2 cell cytotoxicity, dose response, cytotoxicity control for Shn3 inhibitor project, CellTiter-Glo, cherry-picked (AID 624134); assay type: functional, cell-based
[16] = control 3'UTR Renilla luciferase suppression, dose response, counter-screen for Shn3 inhibitor project, cell-based, Clone20-Shn3RL, cherry-picked (AID 624133); assay type: functional
[17] = miR-122 activators in hepatoma reporter cells, dose response, cell-based, Huh7 psiCHECK-miR122, Renilla luciferase, cherry-picked (AID 651956); assay type: functional;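 also: huh7 hepatoma cells stably carrying a psiCHECK-2 miR-122 sensor plasmid; renilla luciferase signal reporting endogenous miR-122 activity after 48 h compound exposure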
[18] = HEK293T cytotoxicity, dose response, cytotoxicity control for miR-122 modulator project, cell-based, inhibitor set, cherry-pick, set 2 (AID 720697); assay type: functional
Trypsin = Trypsin (Sus scrofa, UniProt P00761); assay: porcine trypsin inhibitors, dose response, selectivity assay for Rce1 protease inhibitor project, biochemical, quenched peptide fluorescence, cherry-pick (AID 488789)
CAAX prenyl protease 2 = CAAX prenyl protease 2 (Saccharomyces cerevisiae S288c, UniProt Q03530); assay type: biochemical
[19] = NIH-3T3 fibroblast cytotoxicity, dose response, cytotoxicity control, cell-based, fluorescence, Alamar Blue, secondary assay (AID 2327); assay type: functional;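 also: NIH-3T3 mouse fibroblasts cultured with fluconazole at 8 µg/mL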
[20] = C. albicans growth with fluconazole, confirmation, fluorescence, retest (AID 2467); assay type: functional, cell-based
[21] = target: Intestinal-type alkaline phosphatase (Mus musculus, UniProt P24822); assay: PubChem AID 488874; assay type: functional
[22] = target: T5, Intestinal-type alkaline phosphatase (Homo sapiens, UniProt P09923); assay: human intestinal alkaline phosphatase activators, dose response, biochemical, luminescence, uHTS hits (AID 463120); assay type: functional
[23] = target: T5, Intestinal-type alkaline phosphatase; assay: human IAP activators, dose response, biochemical, luminescent, uHTS hits, set 2 (AID 488817); assay type: functional;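 also: potency of activators that raise enzyme activity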
[24] = target: T6, Alkaline phosphatase, tissue-nonspecific isozyme (Homo sapiens, UniProt P05186); assay: TNAP enzyme activators, dose response, selectivity assay for human IAP activator project, biochemical, TNAP isozyme, human IAP uHTS hits (AID 488886); assay type: functional;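 also: potency of compounds raising TNAP activity as a selectivity check on IAP activators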
T6 sequence (P05186 whole entry): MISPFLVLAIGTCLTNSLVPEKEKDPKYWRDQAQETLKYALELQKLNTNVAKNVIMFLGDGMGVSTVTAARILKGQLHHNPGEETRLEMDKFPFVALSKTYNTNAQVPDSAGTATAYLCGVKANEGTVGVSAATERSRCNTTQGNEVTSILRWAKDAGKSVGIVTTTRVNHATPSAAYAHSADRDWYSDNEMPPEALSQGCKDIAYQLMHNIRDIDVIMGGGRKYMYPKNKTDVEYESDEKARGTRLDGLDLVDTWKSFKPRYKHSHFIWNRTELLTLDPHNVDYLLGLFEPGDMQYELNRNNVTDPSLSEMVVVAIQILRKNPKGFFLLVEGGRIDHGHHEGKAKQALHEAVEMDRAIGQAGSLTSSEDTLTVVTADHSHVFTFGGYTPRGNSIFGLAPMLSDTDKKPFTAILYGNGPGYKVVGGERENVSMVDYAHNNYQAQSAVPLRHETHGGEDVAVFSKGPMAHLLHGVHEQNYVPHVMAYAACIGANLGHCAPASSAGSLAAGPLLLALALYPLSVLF

[25] = human group III sPLA2 inhibitors, dose response, biochemical, QFRET, IC50 (AID 743457);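 also: green fluorescence rise as the enzyme cleaves BODIPY PC-A2 in liposomes; potency for inhibition of the enzyme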
[26] = inhibitors of firefly luciferase expression or activity, dose response, H4 neuroglioma cells, luminescence (AID 1990); assay type: functional, cell-based
[27] = Luminescence Cell-Based Dose Response HTS to Identify Inhibitors of 5'UTR Stem-Loop Driven Prion Protein mRNA Translation in H4 Neuroglioblastoma Cells. [Related pubchem assays: 1827 (Project Summary), 1813 (Primary HTS)]; assay type: functional
[28] = inhibitors of SNCA 5'UTR-driven reporter translation, confirmation, H4 neuroglioma cells, luminescence (AID 1988); assay type: functional, cell-based
[29] = growth suppression of PTEN-null colon cells, dose response, cell-based, HCT116 PTEN knockout (AID 1047); assay type: functional;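 also: HCT116 colon tumor cells with PTEN knocked out; cells exposed to compound for 60 hours before readout; potency for loss of cell viability measured by luminescence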
Galanin receptor type 2 = Galanin receptor type 2 (Homo sapiens, UniProt O43603); assay: Dose Response cell-based high-throughput screening assay to identify agonists of galanin receptor 2 (GALR2). [Related pubchem assays: 864 ]; assay type: functional
[30] = growth suppression of beta-catenin-knockout colon cells, dose response, cell-based, HCT116, human colon tumor (AID 1045); assay type: functional;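 also: HCT116 colon tumor cells with beta catenin knocked out; cells exposed to compound for 60 hours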
[31] = Cytotoxicity screening for potential Inhibitors of Bacterial Capsule Biogenesis. [Related pubchem assays (depositor defined):AID488970]; assay type: functional
BJ [32] = assay: cytotoxicity toward Ras-transformed BJeLR fibroblasts, dose response, cell-based, alamar blue fluorescence, cherrypicked samples (AID 2631); assay type: functional; settings: Homo sapiens;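 also: confirmatory dose-response assay in RAS-dependent BJ fibroblasts engineered with TERT, LT and ST, with cytotoxicity read by fluorescence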
Melanocortin receptor 4 = Melanocortin receptor 4 (Homo sapiens, UniProt P32245); assay type: functional, cell-based;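 also: Cell-based assay with luminescence read-out, confirmatory dose-response testing for agonist activity of biased ligands at MC4R; human U2OS cells with tagged receptor and beta-arrestin; potency of agonists that increase receptor coupling to beta-arrestin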
Chain of Melanocortin receptor 4 (P32245 whole entry): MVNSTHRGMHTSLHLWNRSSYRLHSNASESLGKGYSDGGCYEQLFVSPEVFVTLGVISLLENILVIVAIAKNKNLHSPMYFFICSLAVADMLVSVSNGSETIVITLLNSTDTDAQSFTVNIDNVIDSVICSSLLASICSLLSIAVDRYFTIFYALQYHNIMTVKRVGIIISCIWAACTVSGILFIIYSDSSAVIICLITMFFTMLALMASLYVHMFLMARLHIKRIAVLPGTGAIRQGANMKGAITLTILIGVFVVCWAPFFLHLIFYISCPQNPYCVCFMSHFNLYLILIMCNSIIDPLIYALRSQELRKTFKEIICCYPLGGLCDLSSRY

T5 sequence (P09923 whole entry): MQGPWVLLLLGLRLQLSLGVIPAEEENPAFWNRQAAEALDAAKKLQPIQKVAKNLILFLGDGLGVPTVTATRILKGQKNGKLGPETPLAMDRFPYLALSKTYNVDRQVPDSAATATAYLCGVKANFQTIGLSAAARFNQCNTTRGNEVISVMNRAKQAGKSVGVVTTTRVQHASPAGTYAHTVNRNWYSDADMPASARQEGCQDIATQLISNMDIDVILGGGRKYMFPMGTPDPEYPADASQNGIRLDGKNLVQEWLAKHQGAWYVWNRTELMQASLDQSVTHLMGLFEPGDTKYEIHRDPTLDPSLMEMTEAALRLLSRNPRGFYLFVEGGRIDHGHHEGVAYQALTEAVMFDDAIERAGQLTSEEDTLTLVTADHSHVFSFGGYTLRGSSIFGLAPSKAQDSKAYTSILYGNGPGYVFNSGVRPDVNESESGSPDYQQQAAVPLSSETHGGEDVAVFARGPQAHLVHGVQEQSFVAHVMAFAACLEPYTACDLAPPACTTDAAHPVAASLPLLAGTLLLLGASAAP
T4 sequence (Q92731 whole entry): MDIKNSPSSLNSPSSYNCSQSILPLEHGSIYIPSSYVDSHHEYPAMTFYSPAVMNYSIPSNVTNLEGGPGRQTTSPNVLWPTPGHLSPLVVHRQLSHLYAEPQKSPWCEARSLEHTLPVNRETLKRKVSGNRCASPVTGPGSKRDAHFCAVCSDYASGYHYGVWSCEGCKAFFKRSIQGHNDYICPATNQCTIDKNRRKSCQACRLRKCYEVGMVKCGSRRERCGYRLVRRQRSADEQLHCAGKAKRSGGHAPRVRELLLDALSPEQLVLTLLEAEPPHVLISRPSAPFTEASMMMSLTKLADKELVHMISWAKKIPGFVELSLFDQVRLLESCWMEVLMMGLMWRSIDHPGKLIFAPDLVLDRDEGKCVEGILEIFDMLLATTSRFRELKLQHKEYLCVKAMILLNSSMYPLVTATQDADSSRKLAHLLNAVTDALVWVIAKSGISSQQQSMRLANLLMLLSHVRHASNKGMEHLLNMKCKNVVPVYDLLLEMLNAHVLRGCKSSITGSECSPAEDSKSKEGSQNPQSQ
Chain of Intestinal-type alkaline phosphatase (Mus musculus, UniProt P24822) (P24822 whole entry): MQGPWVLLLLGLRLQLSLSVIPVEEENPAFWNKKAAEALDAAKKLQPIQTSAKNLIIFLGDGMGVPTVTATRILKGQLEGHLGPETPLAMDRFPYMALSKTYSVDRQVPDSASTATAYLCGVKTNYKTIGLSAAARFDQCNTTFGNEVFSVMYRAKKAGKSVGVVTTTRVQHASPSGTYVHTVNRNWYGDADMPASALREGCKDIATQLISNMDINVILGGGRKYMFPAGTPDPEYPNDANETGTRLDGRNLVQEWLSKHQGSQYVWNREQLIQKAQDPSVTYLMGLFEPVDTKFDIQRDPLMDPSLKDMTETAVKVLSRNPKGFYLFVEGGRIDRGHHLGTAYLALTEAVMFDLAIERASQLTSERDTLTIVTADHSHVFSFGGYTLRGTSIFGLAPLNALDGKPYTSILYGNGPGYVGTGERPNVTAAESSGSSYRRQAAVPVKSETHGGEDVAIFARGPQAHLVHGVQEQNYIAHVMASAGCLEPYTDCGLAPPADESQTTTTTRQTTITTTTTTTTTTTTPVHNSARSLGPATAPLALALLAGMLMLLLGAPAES
Chain of CAAX prenyl protease 2 (Q03530 whole entry): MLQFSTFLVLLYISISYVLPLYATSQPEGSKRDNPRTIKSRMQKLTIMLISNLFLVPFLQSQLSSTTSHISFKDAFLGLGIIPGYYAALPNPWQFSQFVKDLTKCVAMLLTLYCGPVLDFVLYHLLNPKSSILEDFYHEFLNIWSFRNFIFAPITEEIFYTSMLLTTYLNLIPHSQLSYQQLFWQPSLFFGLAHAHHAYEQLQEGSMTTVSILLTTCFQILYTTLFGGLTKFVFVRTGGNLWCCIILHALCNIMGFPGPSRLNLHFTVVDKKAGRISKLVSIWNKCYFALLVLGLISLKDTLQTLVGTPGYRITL
Chain of Galanin receptor type 2 (O43603 whole entry): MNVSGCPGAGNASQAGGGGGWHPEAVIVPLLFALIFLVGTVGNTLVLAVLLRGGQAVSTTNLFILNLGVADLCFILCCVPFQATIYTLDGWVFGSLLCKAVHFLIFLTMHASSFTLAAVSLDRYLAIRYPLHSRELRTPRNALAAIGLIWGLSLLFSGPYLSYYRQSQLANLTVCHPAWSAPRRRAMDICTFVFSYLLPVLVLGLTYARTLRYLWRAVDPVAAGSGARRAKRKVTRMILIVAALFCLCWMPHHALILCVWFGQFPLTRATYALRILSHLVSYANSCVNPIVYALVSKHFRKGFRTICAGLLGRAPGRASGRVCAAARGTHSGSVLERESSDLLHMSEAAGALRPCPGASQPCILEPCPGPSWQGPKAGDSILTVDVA
Chain of Cyclin-dependent kinase 5/CDK5 activator 1 (Q00535 whole entry): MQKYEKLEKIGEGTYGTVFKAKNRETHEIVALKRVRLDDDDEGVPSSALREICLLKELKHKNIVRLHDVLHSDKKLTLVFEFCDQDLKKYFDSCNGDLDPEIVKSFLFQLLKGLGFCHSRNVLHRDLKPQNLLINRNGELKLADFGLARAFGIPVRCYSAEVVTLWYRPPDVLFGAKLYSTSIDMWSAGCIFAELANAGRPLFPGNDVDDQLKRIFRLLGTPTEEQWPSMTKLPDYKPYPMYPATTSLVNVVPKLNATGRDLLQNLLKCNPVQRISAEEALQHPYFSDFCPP
Chain of Cyclin-dependent kinase 5/CDK5 activator 1 (Q15078 whole entry, further chain): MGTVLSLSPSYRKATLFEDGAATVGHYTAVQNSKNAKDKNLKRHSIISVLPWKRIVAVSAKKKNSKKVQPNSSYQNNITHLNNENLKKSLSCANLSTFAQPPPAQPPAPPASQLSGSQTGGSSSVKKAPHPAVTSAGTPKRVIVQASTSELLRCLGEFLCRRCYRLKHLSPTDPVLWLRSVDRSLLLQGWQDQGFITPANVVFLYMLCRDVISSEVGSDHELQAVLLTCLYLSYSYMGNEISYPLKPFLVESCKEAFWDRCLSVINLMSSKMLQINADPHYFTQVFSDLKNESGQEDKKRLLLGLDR
Chain of G-protein coupled receptor 35 (Q9HC97 whole entry): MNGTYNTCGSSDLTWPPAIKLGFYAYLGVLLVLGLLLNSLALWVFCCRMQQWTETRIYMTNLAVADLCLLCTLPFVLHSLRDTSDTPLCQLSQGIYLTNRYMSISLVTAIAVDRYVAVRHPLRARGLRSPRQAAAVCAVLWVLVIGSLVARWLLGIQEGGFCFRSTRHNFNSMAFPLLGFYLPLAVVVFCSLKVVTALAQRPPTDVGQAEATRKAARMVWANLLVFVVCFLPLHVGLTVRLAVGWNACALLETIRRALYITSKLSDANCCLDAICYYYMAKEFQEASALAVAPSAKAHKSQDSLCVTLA
Chain of FAD-linked sulfhydryl oxidase ALR (P55789 whole entry): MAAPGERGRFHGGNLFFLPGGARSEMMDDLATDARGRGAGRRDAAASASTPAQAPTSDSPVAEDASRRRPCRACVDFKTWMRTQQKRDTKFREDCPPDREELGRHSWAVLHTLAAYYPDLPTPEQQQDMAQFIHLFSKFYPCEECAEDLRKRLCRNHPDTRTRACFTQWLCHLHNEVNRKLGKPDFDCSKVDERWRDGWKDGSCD
Chain of Large T antigen (P03070 whole entry): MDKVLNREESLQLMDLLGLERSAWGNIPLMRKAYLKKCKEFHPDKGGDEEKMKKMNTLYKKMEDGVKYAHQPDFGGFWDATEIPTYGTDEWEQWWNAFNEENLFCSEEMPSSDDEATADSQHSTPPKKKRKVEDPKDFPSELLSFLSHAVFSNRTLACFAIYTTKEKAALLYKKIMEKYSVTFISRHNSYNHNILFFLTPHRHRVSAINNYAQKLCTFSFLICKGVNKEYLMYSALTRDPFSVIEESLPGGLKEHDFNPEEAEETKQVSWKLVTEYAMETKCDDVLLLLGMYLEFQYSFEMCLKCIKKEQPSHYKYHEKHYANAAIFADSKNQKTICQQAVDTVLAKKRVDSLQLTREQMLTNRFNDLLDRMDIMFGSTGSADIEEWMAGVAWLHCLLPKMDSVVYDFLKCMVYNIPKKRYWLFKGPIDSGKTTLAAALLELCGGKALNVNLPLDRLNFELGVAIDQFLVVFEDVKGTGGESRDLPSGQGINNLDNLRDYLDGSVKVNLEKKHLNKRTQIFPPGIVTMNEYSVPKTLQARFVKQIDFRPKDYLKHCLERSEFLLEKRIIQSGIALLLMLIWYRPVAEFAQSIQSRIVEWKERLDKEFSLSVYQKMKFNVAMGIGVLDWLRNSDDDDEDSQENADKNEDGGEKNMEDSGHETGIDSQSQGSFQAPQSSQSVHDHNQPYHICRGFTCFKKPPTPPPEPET
Chain of Trypsin (P00761 whole entry): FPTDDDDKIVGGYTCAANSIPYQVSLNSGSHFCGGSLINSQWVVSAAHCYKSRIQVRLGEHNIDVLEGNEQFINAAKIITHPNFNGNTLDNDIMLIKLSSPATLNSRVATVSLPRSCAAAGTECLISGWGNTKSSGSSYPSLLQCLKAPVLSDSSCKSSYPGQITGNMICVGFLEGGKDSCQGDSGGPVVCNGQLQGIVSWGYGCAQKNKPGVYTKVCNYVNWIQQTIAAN

With `Nc1[nH]c2cc([N+](=O)[O-])ccc2c1-c1ccccn1` the IC50 [1] was 0.787 µM (active) and the IC50 [2] was 82.9 µM (active).
For `Oc1ccc(-c2nc(-c3ccc(O)c(O)c3)cs2)cc1`, the EC50 [3] was 33.5 µM (active), the EC50 (BJ [4]) was 2.89 µM (inconclusive) and the EC50 [5] was 20.8 µM (inconclusive). The EC50 (BJ [6]) was 41.4 µM (active), the IC50 (Large T antigen) was 36.1 µM (active) and the IC50 (Estrogen receptor beta [7]) was 4.96 µM (active). For the same compound, the IC50 (Estrogen receptor beta [8]) was 90.7 µM (not active), the EC50 (BJ [9]) was > 150 µM (not active) and the EC50 [10] was 2.67 µM (inconclusive). For the same compound, the AC50 [11] was 23.5 µM (active), the AC50 [12] was 1.22 µM (active) and the AC50 [13] was 3.19 µM (active). For the same compound, the AC50 [14] was 5.07 µM (active), the AC50 [15] was > 70 µM (inactive) and the AC50 [16] was 5.09 µM (active). The AC50 [17] was 29 µM (active) and the AC50 [18] was 1.31 µM (active).
For `COc1ccc(-c2cc3nc(C)c(CCC(=O)N4CCN(c5ccccn5)CC4)c(C)n3n2)c(OC)c1`, the AC50 (Trypsin) was 7.2 µM (active) and the AC50 (CAAX prenyl protease 2) was > 100 µM (inactive).
For `O=C(NNC(=S)NC1CCCCC1)c1ccccc1Br`, the EC50 [19] was 21.7 µM (inconclusive), the EC50 [20] was 2.94 µM (active) and the IC50 [21] was 50.3 µM (active). For the same compound, the EC50 [22] was 12.1 µM (active), the EC50 [23] was 14.9 µM (active) and the EC50 [24] was 16.1 µM (active). For the same compound, the IC50 [25] was > 122 µM (inactive).
For `CCCOc1ccc(C(=O)C(CCC(CNCC)C(=O)c2ccc(OCCC)cc2)CNCC)cc1` (stereo unspecified), the EC50 [26] was > 120 µM (not active), the EC50 (BJ [4]) was 2.57 µM (inconclusive) and the EC50 [27] was 8.92 µM (active). For the same compound, the EC50 [28] was 6.08 µM (active), the EC50 (BJ [6]) was 4.61 µM (active) and the EC50 [29] was 1.76 µM (active). For the same compound, the EC50 (Galanin receptor type 2) was > 55.7 µM (not active), the EC50 [30] was 1.88 µM (active) and the EC50 (BJ [9]) was 2.72 µM (inconclusive). For the same compound, the EC50 [10] was 3.31 µM (active), the CC50 [31] was 3.18 µM (active) and the EC50 (BJ [32]) was 0.513 µM (active). The EC50 (Melanocortin receptor 4) was > 89.2 µM (inactive).
